Reference: patent publication US20230348459A1, “PYRROLIDINE COMPOUND AND USE THEREOF” (SIMCERE PHARMACEUTICAL CO., LTD., priority 2020, published 2023)

Experiments:
[1] = Plasma protein binding rate, equilibrium dialysis, rat plasma; assay type: in vitro ADME; settings: pH 7.4, SD rat plasma, 6 hours dialysis
Description: (§1) The protein binding rate of the compounds of the present invention in the plasma of five species (human, monkey, dog, rat and mouse) was determined by the following test method.
(§2) • 1. Human plasma (BioIVT), beagle dog plasma (BioIVT), SD rat plasma (BioIVT), CD-1 mouse plasma (BioIVT); • 2. 96-well equilibrium dialysis plate (HTDialysis LLC, Gales Ferry, CT, HTD96B), equilibrium dialysis membrane (MWCO 12-14 K, #1101); • 3. Positive control compound warfarin; • 4. ABI QTrap 5500 liquid chromatography-mass spectrometry.
(§3) 1. Preparation of a buffer with a concentration of 100 mM sodium phosphate and 150 mM NaCl: an alkaline solution with a concentration of 14.2 g/L Na2HPO4 and 8.77 g/L NaCl was prepared with ultrapure water, and an acidic solution with a concentration of 12.0 g/L NaH2PO4 and 8.77 g/L NaCl was prepared with ultrapure water. The alkaline solution was titrated with the acidic solution to pH 7.4 to prepare a buffer with a concentration of 100 mM sodium phosphate and 150 mM NaCl.
(§4) 2. Preparation of dialysis membrane: the dialysis membrane was soaked in ultrapure water for 60 minutes to separate the membrane into two pieces, then soaked in 20% ethanol for 20 minutes, and finally soaked in the buffer used for dialysis for 20 minutes.
(§5) 3. Preparation of plasma: the frozen plasma was quickly thawed at room temperature, then the plasma was centrifuged at 3,220 g at 4° C. for 10 min to remove clots, and the supernatant was collected into a new centrifuge tube. The pH of the plasma was measured and recorded, and the plasma with pH of 7-8 was used.
(§6) 3. Preparation of compound-containing plasma samples: 10 mM stock solution of compounds of the present invention or positive control compounds were diluted with DMSO to obtain 200 µM working solution. […]
(§7) The peak areas of the compounds on the buffer side and the plasma side were determined. […]
(§8) All the data was calculated by the Microsoft Excel software. The plasma protein binding rate values of the compounds of the present invention were calculated.

[2] = Plasma protein binding rate, equilibrium dialysis, mouse plasma; assay type: in vitro ADME; settings: pH 7.4, CD-1 mouse plasma, 6 hours dialysis
Description: as §1, §2, §3, §4, §5, §6, §7, §8

[3] = target: estrogen receptors in MCF7 cells (Homo sapiens (Human), UniProt P03372); test: Degradation of estrogen receptors in MCF7 cells (in-cell western); assay type: cell-based; settings: for DC50: 24 hours treatment, read-out: ER level DC50; for Dmax: 24 hours, 0.1 µM fulvestrant = 100% degradation control, read-out: Maximum degradation rate
Description: The purpose of the experiment is to determine the degradation activity of the compounds of the present invention on endogenously expressed estrogen receptors in MCF7 cells, and to evaluate the activity of the compounds according to DC50 and maximum degradation efficiency.
MCF7 cells (ATCC, HTB-22) were cultured in DMEM (Gibco, 11995-065) complete medium containing 10% fetal bovine serum. On the first day of the experiment, MCF7 cells were inoculated in a 384-well plate at a density of 3000 cells/well using the complete medium, and cultured in a 37° C., 5% CO2 cell incubator. The compounds to be tested were dissolved in DMSO with a stock concentration of 10 mM, the solution was diluted with Echo 550 (Labcyte Inc.) and added to the cell culture plate. Each compound with the starting concentration for treatment of 100 nM was subjected to 3-fold gradient dilution with 9 concentration points. A blank control containing 0.5% DMSO was set, and double replicate wells as controls were set at each concentration point. The culture was cultured in a 37° C., 5% CO2 cell incubator for 24 hours. Paraformaldehyde was added to the cell culture medium in each cell culture well, and the final concentration of paraformaldehyde was about 3.7% to fix the cells. After the mixture was reacted for 30 minutes, the supernatant was discarded, and 50 µL of PBS was added to each well for washing once. The cells were treated with PBS containing 0.5% v/v Tween-20 for 30 minutes, and washed with PBS once. A blocking solution (PBS containing 5% BSA, 0.05% Tween-20) was added, and the mixture was incubated at room temperature for 1 hour. The blocking solution was removed, a mixture solution of primary antibodies (anti-ER mAb, Estrogen Receptor α (D8H8) Rabbit mAb, GST, # 8644S, 1 : 1000 dilution; anti-GAPDH mAb, GAPDH(D4C6R) Mouse mAb, GST, #97166S, 1 : 2000 dilution) was added, and the mixture was incubated at room temperature for 3 hours. The culture was washed with PBST (PBS containing 0.05% Tween-20) 3 times. Secondary antibodies for detection (800CW-goat anti-rabbit IgG, LI-COR, P/N: 926-32211, 1 : 1000 dilution; 680RD-goat anti-mouse IgG, LI-COR, #925-68070, 1 : 1000 dilution) were added, and the mixture was incubated at room temperature and in the dark for 45 minutes. After washing with PBST 3 times, the fluorescence signal of each well was read using Odyssey CLx, and the value of Chanel 800 (ER)/Chanel 680 (GAPDH) was calculated. The wells treated with 0.1 µM fulvestrant were used as the 100% degradation control, and the degradation rate at each concentration point was calculated. The data were analyzed and processed by XlLfit, and the degradation activity DC50 and the maximum degradation rate Imax of each compound were calculated.

estrogen receptors in MCF7 cells, sequence (P03372 whole entry): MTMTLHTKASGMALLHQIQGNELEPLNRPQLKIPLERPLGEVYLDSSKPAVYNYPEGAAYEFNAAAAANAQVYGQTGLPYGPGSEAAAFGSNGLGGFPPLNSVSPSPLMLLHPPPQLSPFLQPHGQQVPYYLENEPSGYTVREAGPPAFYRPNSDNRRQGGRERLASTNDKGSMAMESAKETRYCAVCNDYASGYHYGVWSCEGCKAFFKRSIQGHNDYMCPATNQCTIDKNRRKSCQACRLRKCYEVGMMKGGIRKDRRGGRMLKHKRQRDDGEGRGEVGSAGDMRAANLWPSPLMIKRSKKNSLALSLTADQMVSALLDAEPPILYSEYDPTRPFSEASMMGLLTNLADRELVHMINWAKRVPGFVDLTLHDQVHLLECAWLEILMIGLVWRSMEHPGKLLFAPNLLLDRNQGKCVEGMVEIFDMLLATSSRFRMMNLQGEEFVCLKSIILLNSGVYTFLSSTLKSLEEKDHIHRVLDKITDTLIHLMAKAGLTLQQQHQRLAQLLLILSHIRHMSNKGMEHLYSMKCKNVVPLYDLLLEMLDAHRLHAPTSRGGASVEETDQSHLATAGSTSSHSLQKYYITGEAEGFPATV

SMILES | fraction unbound at 6 h, 1 µM [1] | fraction unbound at 6 h, 1 µM [2] | DC50 [3] [nM] | Dmax [3] [%]
C[C@@H]1Cc2c([nH]c3ccccc23)C(c2c(F)cc(N[C@H]3CCN(CCCF)C3)cc2F)N1CC(F)(F)F (stereo in doubt) [Example 4, (S)-N-(3,5-difluoro-4-((1S,3R)-3-methyl-2-(2,2,2-trifluoroethyl)-2,3,4,9-tetrahydro-1H-pyridino[3,4-b]indol-1-yl)phenyl)-1-(3-fluoropropyl)pyrrolidin-3-amine] | 0.002 | 0.002 | 0.04 | 99
C[C@@H]1Cc2c([nH]c3ccccc23)C(c2c(F)cc(N[C@H]3CCN(CCCF)C3)cc2F)N1CC(F)(F)CO (stereo in doubt) [Example 7, 3-((1S,3R)-1-(2,6-difluoro-4-(((S)-1-(3-fluoropropyl)pyrrolidin-3-yl)amino)phenyl)-3-methyl-3,4-dihydro-1H-pyridino [3,4-b]indole-2(9H)-yl)-2,2-difluoropropane-1-ol] | 0.015 | 0.012 | 0.06 | –
C[C@@H]1Cc2c([nH]c3ccccc23)[C@@H](c2ccc(N[C@H]3CCN(CCCF)C3)cn2)N1CC(F)(F)F [Example 3, N-((S)-1-(3-fluoropropyl)pyrrolidin-3-yl)-6-((1S,3R)-3-methyl-2-(2,2,2-trifluoroethyl)-2,3,4,9-tetrahydro-1H-pyridino[3,4-b]indol-1-yl)pyridine-3-amine] | 0.029 | 0.019 | 0.15 | 104
